Consider 1 compound from ChEMBL document CHEMBL5678795 (Eur J Pharmacol, 1999).

For data set [1], the target named is T1, Endothelin-1 receptor (Homo sapiens, UniProt P25101).
T1 sequence (P25101 whole entry): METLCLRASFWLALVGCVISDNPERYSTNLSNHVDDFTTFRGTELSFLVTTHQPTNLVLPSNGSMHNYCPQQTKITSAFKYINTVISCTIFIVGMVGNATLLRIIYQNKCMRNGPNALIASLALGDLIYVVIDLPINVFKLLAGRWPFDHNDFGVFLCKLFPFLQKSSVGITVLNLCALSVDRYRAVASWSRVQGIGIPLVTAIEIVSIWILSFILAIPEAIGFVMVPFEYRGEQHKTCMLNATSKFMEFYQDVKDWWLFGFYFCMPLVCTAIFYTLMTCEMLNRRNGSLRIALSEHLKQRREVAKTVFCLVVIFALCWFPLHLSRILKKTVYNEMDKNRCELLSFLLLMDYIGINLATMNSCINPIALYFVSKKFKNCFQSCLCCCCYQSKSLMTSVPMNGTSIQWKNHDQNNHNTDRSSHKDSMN
Put plainly: Antagonist activity at ETA receptor in endothelin-1 stimulated human Pericardial smooth muscle cell assessed as inhibition of […] in presence of myo-[3H] inositol by anion exchange chromatography. Type of data set: functional, cell-based.

In data set [2] the target is T2, Endothelin-1 receptor (Homo sapiens) (UniProt P25101).
T2 sequence (whole entry): T1 sequence (P25101 whole entry)
Put plainly: Antagonist activity at ETA receptor in human Pericardial smooth muscle cell assessed as inhibition of […] in presence of myo-[3H] inositol by anion exchange chromatography. Format: functional, cell-based.

Data set [3] has as its target Adenosine receptor A1 (Homo sapiens) (UniProt P30542). Put plainly: Displacement of [3H]DPCPX from human recombinant Adenosine A1 receptor at 10 uM incubated for 60 mins by radiometric based scintillation counter assay relative to control.
Data set [4] deals with B2 bradykinin receptor (Homo sapiens) (UniProt P30411). Kind of data set: Displacement of [3H]bradykinin from human recombinant Bradykinin B2 receptor at 10 uM incubated for 60 mins by radiometric based scintillation counter assay relative to control. In general terms: Loss of bound radioactivity is the signal in a displacement assay; it reports binding, not function.
Sequence of B2 bradykinin receptor (Homo sapiens) (P30411 whole entry): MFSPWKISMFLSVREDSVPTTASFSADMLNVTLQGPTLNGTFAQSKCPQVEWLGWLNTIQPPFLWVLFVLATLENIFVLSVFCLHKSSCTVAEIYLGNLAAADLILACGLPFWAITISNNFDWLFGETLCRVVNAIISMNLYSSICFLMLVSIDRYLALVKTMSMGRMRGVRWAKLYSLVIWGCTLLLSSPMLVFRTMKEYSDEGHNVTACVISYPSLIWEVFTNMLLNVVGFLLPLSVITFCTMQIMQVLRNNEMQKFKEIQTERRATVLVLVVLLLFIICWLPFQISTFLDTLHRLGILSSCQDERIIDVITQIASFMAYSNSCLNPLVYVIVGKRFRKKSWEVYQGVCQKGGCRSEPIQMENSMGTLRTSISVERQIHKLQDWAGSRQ
The species named for a further data set is Rattus norvegicus. Put plainly: Displacement of [3H]batrachotoxinin from rat brain Voltage-gated Na+ channel (site 2) at 10 uM incubated for 60 mins by radiometric based scintillation counter assay relative to control. Format: tissue-based.
Data set [5] concerns the target Substance-K receptor (Homo sapiens) (UniProt P21452). Kind of data set: Displacement of [125I]NKA from human recombinant Neurokinin A receptor at 10 uM incubated for 60 mins by radiometric based scintillation counter assay relative to control.
For data set [6], the target named is Sodium-dependent dopamine transporter (Homo sapiens) (UniProt Q01959). Put plainly: Displacement of [3H]BTCP from human recombinant dopamine receptor at 10 uM incubated for 120 mins by radiometric based scintillation counter assay relative to control.
Sequence of Sodium-dependent dopamine transporter (Homo sapiens) (Q01959 whole entry): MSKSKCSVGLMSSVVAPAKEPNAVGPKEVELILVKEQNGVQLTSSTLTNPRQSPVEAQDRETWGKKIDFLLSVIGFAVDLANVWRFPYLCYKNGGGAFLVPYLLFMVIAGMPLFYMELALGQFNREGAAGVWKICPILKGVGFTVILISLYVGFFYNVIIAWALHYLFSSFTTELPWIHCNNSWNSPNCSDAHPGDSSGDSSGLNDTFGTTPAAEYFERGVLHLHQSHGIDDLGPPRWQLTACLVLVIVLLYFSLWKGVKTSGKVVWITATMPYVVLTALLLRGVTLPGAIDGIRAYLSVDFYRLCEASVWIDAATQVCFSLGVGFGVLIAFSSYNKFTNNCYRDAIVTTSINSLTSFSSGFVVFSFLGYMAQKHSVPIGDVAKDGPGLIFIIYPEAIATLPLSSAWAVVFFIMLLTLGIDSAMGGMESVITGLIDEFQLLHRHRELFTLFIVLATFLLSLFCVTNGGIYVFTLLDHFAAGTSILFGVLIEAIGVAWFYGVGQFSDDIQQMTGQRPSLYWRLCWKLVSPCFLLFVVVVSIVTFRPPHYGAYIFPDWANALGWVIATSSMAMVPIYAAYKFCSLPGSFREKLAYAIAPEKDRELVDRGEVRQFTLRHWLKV
Data set [7] is described as follows: Half life in Beagle dog at 5 mg/kg, po administered for 12 hrs by HPLC analysis. Conditions: in vivo. Type of data set: ADME, organism-based, Canis lupus familiaris.
The target in data set [8] is Kappa-type opioid receptor (Homo sapiens) (UniProt P41145). Kind of data set: Displacement of [3H]U-69593 from human kappa-Opioid receptor at 10 uM incubated for 60 mins by radiometric based scintillation counter assay relative to control.
Sequence of Kappa-type opioid receptor (Homo sapiens) (P41145 whole entry): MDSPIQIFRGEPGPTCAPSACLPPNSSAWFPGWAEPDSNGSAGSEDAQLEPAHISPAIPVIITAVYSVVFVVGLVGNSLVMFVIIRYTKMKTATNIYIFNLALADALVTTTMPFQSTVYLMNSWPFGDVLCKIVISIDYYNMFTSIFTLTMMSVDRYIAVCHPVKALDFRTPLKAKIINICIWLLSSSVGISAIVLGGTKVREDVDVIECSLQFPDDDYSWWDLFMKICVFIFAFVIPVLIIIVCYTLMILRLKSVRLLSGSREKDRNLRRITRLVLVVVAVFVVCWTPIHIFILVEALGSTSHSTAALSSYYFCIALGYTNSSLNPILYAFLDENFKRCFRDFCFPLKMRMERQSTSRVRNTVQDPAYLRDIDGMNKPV
The target of data set [9] is 5-hydroxytryptamine receptor 6 (Homo sapiens) (UniProt P50406). Kind of data set: Displacement of [3H]LSD from human recombinant 5-Hydroxytryptamine 6 at 10 uM incubated for 120 mins by radiometric based scintillation counter assay relative to control.
Sequence of 5-hydroxytryptamine receptor 6 (Homo sapiens) (P50406 whole entry): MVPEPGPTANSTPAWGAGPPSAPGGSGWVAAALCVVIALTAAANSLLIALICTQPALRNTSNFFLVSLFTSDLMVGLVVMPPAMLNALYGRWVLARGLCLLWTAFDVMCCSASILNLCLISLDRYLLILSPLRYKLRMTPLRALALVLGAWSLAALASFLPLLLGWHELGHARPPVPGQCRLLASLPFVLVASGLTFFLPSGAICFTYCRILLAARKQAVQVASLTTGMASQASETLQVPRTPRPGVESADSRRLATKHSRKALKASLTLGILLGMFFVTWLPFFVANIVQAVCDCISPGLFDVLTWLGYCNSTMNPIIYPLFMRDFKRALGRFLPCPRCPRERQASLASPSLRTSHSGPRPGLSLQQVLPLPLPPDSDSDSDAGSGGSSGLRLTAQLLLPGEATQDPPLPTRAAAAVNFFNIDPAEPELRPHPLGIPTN
For data set [10], the species on record is Homo sapiens. Kind of data set: Inhibition of L-type Ca2+ channel (unknown origin) at 10 uM by radioligand binding assay relative to control.
For data set [11], the target named is Histamine H2 receptor (Homo sapiens) (UniProt P25021). Put plainly: Displacement of [125I]APT from human recombinant histamine H2 receptor at 10 uM incubated for 120 mins by radiometric based scintillation counter assay relative to control.
Sequence of Histamine H2 receptor (Homo sapiens) (P25021 whole entry): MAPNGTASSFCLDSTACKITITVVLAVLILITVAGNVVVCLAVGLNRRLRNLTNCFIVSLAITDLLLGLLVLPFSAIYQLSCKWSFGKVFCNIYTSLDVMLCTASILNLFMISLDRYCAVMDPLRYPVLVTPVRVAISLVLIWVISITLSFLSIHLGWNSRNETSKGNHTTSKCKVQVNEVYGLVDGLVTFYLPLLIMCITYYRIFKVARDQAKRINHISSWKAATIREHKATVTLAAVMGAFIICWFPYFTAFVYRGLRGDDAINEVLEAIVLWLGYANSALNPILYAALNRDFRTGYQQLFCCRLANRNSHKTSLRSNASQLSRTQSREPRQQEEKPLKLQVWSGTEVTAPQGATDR
The target of data set [12] is D(1A) dopamine receptor (Homo sapiens) (UniProt P21728). Put plainly: Displacement of [3H]SCH 23390 from human recombinant dopamine D1 receptor at 10 uM incubated for 60 mins by radiometric based scintillation counter assay relative to control.
Sequence of D(1A) dopamine receptor (Homo sapiens) (P21728 whole entry): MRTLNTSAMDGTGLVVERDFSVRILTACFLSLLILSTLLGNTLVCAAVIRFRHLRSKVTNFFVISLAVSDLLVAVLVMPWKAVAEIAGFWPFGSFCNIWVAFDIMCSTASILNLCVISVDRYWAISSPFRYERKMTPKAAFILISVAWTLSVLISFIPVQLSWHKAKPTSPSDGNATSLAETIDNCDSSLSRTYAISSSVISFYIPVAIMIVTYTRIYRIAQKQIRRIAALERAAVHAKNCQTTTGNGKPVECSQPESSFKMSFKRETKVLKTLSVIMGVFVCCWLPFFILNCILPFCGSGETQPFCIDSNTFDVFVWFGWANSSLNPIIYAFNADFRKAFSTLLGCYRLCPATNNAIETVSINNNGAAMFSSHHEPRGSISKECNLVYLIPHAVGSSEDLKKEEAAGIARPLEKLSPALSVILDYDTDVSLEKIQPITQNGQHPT
Data set [13] is filed under the species Homo sapiens. Put plainly: Inhibition of human galanin receptor at 10 uM by radioligand binding assay relative to control.
The target in data set [14] is Cannabinoid receptor 1 (Homo sapiens) (UniProt P21554). Kind of data set: Displacement of [3H]CP 55940 from human recombinant cannabinoid CB1 receptor at 10 uM incubated for 30 mins by radiometric based scintillation counter assay relative to control.
Sequence of Cannabinoid receptor 1 (Homo sapiens) (P21554 whole entry): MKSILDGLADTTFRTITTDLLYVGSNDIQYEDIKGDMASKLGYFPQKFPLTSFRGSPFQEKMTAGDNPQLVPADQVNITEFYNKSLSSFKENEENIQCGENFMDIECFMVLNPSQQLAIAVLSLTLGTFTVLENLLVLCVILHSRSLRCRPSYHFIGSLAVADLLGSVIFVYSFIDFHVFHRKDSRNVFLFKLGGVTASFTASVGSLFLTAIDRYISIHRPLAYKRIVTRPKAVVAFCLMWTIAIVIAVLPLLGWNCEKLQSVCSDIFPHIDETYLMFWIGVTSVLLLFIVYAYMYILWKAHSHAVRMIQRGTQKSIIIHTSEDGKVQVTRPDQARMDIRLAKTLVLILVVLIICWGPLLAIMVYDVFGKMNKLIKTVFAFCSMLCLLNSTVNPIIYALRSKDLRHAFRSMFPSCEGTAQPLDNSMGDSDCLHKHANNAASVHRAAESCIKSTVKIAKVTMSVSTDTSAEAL
The species entered for data set [15] is Homo sapiens. Kind of data set: Inhibition of Voltage-gated Na+ channel (site 1) (unknown origin) at 10 uM by radioligand binding assay relative to control.
For the next data set, the species on record is Mus musculus. Kind of data set: Displacement of [125I]PDGF BB from mouse platlet-derived growth factor receptor at 10 uM incubated for 180 mins by radiometric based scintillation counter assay relative to control.
Data set [16] in a line: Oral bioavailability in Sprague-Dawley rat at 10 mg/kg administered for 12 hrs by HPLC analysis. Type of data set: ADME, organism-based. Conditions: in vivo.
The target in data set [17] is T3, Endothelin-1 receptor (Rattus norvegicus, UniProt P26684).
T3 sequence (P26684 whole entry): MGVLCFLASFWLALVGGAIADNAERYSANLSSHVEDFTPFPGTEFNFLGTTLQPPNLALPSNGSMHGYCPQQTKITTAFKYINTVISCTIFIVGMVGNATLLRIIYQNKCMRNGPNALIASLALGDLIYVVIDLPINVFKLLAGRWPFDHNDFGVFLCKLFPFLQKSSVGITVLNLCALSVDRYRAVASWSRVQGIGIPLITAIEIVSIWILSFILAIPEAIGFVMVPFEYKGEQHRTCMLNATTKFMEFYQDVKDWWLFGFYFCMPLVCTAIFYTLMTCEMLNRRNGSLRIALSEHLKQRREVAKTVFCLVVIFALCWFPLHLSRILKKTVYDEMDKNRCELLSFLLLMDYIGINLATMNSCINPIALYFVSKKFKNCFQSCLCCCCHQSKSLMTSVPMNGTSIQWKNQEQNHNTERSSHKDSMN
Put plainly: Displacement of [125I]endhothelin-1 from ETA receptor in rat MMQ cells Membrane at 25 degC incubated for 3 hrs by radioligand competition binding assay. Format: cell membranes.

Data set [18] has as its target T4, Endothelin-1 receptor (Rattus norvegicus) (UniProt P26684).
T4 sequence (whole entry): T3 sequence (P26684 whole entry)
Put plainly: Antagonist activity to ETA receptor in endothelin-1 stimulated Sprague-Dawley rat aorta assessed as induction of vessel ring contraction upto 10 uM preincubated for 15 mins. Format: functional, tissue-based.

Data set [19] concerns the target P2X receptor (Rattus norvegicus) (UniProt P51579+P49653+P51578+Q64663+P47824+P51577+P49654). Put plainly: Displacement of [3H]alpha,beta -MeATP from rat bladder P2X-purinergic receptor at 10 uM incubated for 120 mins by radiometric based scintillation counter assay relative to control. Format: protein assay.
The target of data set [20] is 5-hydroxytryptamine receptor 5A (Homo sapiens) (UniProt P47898). Kind of data set: Displacement of [3H]LSD from human recombinant 5-Hydroxytryptamine 5A at 10 uM incubated for 120 mins by radiometric based scintillation counter assay relative to control.
Sequence of 5-hydroxytryptamine receptor 5A (Homo sapiens) (P47898 whole entry): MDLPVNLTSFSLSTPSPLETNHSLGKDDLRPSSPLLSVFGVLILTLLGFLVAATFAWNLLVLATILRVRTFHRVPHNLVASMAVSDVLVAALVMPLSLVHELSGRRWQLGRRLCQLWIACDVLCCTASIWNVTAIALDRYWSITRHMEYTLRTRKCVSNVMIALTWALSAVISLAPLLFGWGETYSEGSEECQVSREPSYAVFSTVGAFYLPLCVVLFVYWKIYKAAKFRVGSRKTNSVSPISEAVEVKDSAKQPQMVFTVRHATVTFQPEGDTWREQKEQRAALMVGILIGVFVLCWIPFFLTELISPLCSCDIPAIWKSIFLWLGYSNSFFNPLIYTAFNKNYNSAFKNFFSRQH
Data set [21] concerns the target Beta-2 adrenergic receptor (Homo sapiens) (UniProt P07550). Put plainly: Displacement of [3H](-)CGP 12177 from human recombinant beta2-adrenoceptor at 10 uM incubated for 120 mins by radiometric based scintillation counter assay relative to control.
The target in data set [22] is Beta-1 adrenergic receptor (Homo sapiens) (UniProt P08588). Put plainly: Displacement of [3H](-)CGP 12177 from human recombinant beta1-adrenoceptor at 10 uM incubated for 60 mins by radiometric based scintillation counter assay relative to control.
Sequence of Beta-1 adrenergic receptor (Homo sapiens) (P08588 whole entry, looked up): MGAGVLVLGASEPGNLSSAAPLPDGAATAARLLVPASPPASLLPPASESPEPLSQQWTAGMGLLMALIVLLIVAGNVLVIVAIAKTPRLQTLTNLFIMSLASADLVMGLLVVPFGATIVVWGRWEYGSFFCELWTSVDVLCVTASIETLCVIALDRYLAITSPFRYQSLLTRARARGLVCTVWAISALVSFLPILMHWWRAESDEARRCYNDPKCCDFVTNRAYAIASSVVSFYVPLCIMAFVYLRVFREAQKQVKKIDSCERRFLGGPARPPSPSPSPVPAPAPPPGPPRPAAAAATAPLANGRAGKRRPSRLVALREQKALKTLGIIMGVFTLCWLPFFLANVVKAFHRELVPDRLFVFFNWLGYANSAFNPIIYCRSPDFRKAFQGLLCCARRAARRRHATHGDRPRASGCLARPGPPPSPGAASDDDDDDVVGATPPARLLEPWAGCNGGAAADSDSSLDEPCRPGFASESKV

Structures are written as SMILES. pIC50: −log10 of the molar value. Active and inactive are the calls of the source. No cut-off for these calls is given here.

Sequence of Beta-2 adrenergic receptor (Homo sapiens) (P07550 whole entry, looked up): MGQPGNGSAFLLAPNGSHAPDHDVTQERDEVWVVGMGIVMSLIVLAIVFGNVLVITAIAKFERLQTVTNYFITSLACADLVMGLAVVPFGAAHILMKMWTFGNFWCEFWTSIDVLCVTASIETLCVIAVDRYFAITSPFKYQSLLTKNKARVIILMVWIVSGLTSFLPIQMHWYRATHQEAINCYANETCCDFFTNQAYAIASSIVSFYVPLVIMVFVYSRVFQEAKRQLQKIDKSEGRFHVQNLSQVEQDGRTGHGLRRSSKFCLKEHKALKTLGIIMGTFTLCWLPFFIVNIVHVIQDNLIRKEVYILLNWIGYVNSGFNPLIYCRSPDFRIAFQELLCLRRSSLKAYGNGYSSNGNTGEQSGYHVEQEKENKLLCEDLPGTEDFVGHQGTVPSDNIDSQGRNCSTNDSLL
Sequence of Substance-K receptor (Homo sapiens) (P21452 whole entry): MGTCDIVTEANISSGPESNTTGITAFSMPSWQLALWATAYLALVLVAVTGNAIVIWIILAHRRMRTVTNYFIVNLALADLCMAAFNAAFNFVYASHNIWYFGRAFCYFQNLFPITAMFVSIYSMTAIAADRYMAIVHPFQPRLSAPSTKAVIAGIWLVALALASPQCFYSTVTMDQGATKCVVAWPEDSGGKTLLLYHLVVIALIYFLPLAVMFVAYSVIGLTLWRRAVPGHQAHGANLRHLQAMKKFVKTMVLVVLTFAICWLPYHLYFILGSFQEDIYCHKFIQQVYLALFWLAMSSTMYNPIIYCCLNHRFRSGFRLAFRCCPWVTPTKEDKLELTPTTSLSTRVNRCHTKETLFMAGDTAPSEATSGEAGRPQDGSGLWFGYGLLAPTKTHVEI

One may read the pIC50 as the IC50 on a negative log10 scale, so that one unit is a factor of ten. As a reminder, the inhibition is the change of the read-out against control, counted positive when it falls. The term half-life denotes the time in which the quantity being followed falls by half. Lower therefore signals rapid decline. Broadly, the bioavailability is the share of a dose that reaches the circulation, judged against a reference dose that is usually intravenous. Regarding `CCCCN(CCCC)C(=O)CN1[C@H](c2cc(OC)c3c(c2)OCO3)C[C@@H](C(=O)O)[C@@H]1CC(C)(C)CCC`, the pIC50 at Endothelin-1 receptor [1] was 8.52; at Endothelin-1 receptor [17], 9.25. For the same compound, the outcome in data set [2] and in data set [18] was inactive. In addition, the inhibition in data set [3] is 23%; in data set [4] it was < 10%; in the data set filed under Rattus norvegicus, < 10%; in data set [5] it was < 10%; in [6] it was < 10%; in data set [8], 28%. The inhibition in data set [9] is < 10%; in the data set listed under Homo sapiens [10] it was 29%; in [11], < 10%; in data set [12], 14%; in the data set listed under Homo sapiens [13], < 10%; in [14], < 10%. Besides, the inhibition was 22% in the data set listed under Homo sapiens [15]; < 10% in the data set listed under Mus musculus; 37% in [19]; < 10% in data set [20]; < 10% in data set [21]; < 10% in [22]. In data set [7], this compound showed a half-life of 3.3 h. Further, the bioavailability in data set [16] worked out at 47.7%.
